Measured values from US20070128217A1 (priority 2003, published 2007).

Legend:
[1] = test system: antibodies in sera from SARS patients (sera 1a, 1b, 2, 6, 37, 62, London, SARS-yellow, SARS-green); assay type: binding, human; design: Binding of serum 6 to linear peptides of protein X1 of SARS-CoV Urbani / Binding of serum 37 to linear peptides of protein X1 of SARS-CoV Urbani / Binding of serum 6 to looped/cyclic peptide (PEPSCAN-ELISA) / Binding of serum 37 to looped/cyclic peptide (PEPSCAN-ELISA) / Binding of serum 37 to looped/cyclic peptides of protein X1 of SARS-CoV Urbani / Binding of serum 6 to linear peptides of protein X2 / Binding of serum 37 to linear peptides of protein X2 / Binding of serum 37 to looped/cyclic peptides of protein X2 of SARS-CoV Urbani / Binding of serum 6 to linear peptides of protein M of SARS-CoV Urbani / Binding of serum 37 to linear peptides of protein M of SARS-CoV Urbani / Binding of serum 6 to looped/cyclic peptides of protein M of SARS-CoV Urbani / Binding of serum 37 to looped/cyclic peptides of protein M of SARS-CoV Urbani / Binding of serum 6 to linear peptides of protein X3 of SARS-CoV Urbani / Binding of serum 37 to linear peptides of protein X3 of SARS-CoV Urbani / Binding of serum 37 to looped/cyclic peptides of protein X3 of SARS-CoV Urbani / Binding of serum 6 to linear peptides of protein X4 of SARS-CoV Urbani / Binding of serum 37 to linear peptides of protein X4 of SARS-CoV Urbani / Binding of serum 37 to looped/cyclic peptides of protein X4 of SARS-CoV Urbani / Binding of serum 6 to linear peptides of protein X5 of SARS-CoV Urbani / Binding of serum 37 to linear peptides of protein X5 of SARS-CoV Urbani / Binding of serum 37 to looped/cyclic peptides of protein X5 of SARS-CoV Urbani / Binding of serum 6 to linear peptides of protein N of SARS-CoV Urbani / Binding of serum 37 to linear peptides of protein N of SARS-CoV Urbani / Binding of serum 6 to linear peptide (PEPSCAN-ELISA) / Binding of serum 1a to looped/cyclic peptides of protein N of SARS-CoV Urbani / Binding of serum 1b to looped/cyclic peptides of protein N of SARS-CoV Urbani / Binding of serum 2 to looped/cyclic peptides of protein N of SARS-CoV Urbani / Binding of serum 6 to looped/cyclic peptides of protein N of SARS-CoV Urbani / Binding of serum 37 to looped/cyclic peptides of protein N of SARS-CoV Urbani / Binding of serum 62 to looped/cyclic peptides of protein N of SARS-CoV Urbani / Binding of serum London to looped/cyclic peptides of protein N of SARS-CoV Urbani / Binding of serum SARS-green to looped/cyclic peptides of protein N of SARS-CoV Urbani: unit not given here
[2] = test system: control sera (pooled serum of ten healthy LUMC hospital workers; commercial negative donor pooled serum from the Dutch bloodbank); assay type: binding, human; design: Binding of Control serum LUMC to linear peptides / Binding of Control serum Blood-bank to linear peptides / Binding of Control serum LUMC to looped peptides / Binding of Control Serum Blood-Bank to Looped peptides / Binding of Control serum LUMC to linear peptides of the protein M of SARS-CoV Urbani / Binding of Control serum Blood-bank to linear peptides of the protein M of SARS-CoV Urbani / Binding of Control serum LUMC to looped peptides of the protein M of SARS-CoV Urbani / Binding of Control Serum Blood-Bank to Looped peptides of the protein M of SARS-CoV Urbani: unit not given here
[3] = test system: rabbit serum obtained by immunizing a rabbit with the SARS-CoV strain Frankfurt 1; assay type: binding; design: Binding of a rabbit serum to linear peptides / Binding of a rabbit serum to looped peptides / Rabbit serum linear peptides / Rabbit serum looped peptides / Binding of a rabbit serum to linear peptides of protein N of SARS-CoV Urbani (Rabbit serum linear peptides) / Binding of a rabbit serum to looped/cyclic peptides of protein N of SARS-CoV Urbani (Rabbit serum looped peptides): unit not given here

FLAFVVFLLVTLAIL
Binding of serum 1a to linear peptides of protein E of SARS-CoV Urbani [1]: 0.7
Binding of serum 1a to looped/cyclic peptides of protein E of SARS-CoV Urbani [1]: 0.5
Binding of serum 1b to linear peptides of protein E of SARS-CoV Urbani [1]: 0.5
Binding of serum 1b to looped/cyclic peptides of protein E of SARS-CoV Urbani [1]: 0.5
Binding of serum 2 to linear peptides of protein E of SARS-CoV Urbani [1]: 0.2
Binding of serum 2 to looped/cyclic peptides of protein E of SARS-CoV Urbani [1]: 0.6
Binding of serum 6 to linear peptides of protein E of SARS-CoV Urbani [1]: 0.4
Binding of serum 6 to looped/cyclic peptides of protein E of SARS-CoV Urbani [1]: 0.5
Binding of serum 37 to linear peptides of protein E of SARS-CoV Urbani [1]: 0.3
Binding of serum 37 to looped/cyclic peptides of protein E of SARS-CoV Urbani [1]: 0.6
Binding of serum 62 to linear peptides of protein E of SARS-CoV Urbani [1]: 0.1
Binding of serum 62 to looped/cyclic peptides of protein E of SARS-CoV Urbani [1]: 0.7
Binding of serum London to linear peptides of protein E of SARS-CoV Urbani [1]: 0.4
Binding of serum London to looped/cyclic peptides of protein E of SARS-CoV Urbani [1]: 0.4
Binding of serum SARS-green to linear peptides of protein E of SARS-CoV Urbani [1]: 0.7
Binding of serum SARS-green to looped/cyclic peptides of protein E of SARS-CoV Urbani [1]: 0.4
Binding of serum SARS-yellow to linear peptides of protein E of SARS-CoV Urbani [1]: 0.3
Binding of serum SARS-yellow to looped/cyclic peptides of protein E of SARS-CoV Urbani [1]: 0.5
Binding of Control Serum Blood-Bank to Looped peptides [2]: 0.8
Binding of Control serum Blood-bank to linear peptides [2]: 0.4
Binding of Control serum LUMC to linear peptides [2]: 0.4
Binding of Control serum LUMC to looped peptides [2]: 0.6
Binding of a rabbit serum to linear peptides [3]: 0.0
Binding of a rabbit serum to looped peptides [3]: 0.2

FNPETNILLNVPLRG
Binding of serum 1a to linear peptides of protein M of SARS-CoV Urbani [1]: 0.8
Binding of serum 1a to looped/cyclic peptides of protein M of SARS-CoV Urbani [1]: 0.8
Binding of serum 1b to linear peptides of protein M of SARS-CoV Urbani [1]: 0.6
Binding of serum 1b to looped/cyclic peptides of protein M of SARS-CoV Urbani [1]: 0.8
Binding of serum 2 to linear peptides of protein M of SARS-CoV Urbani [1]: 0.5
Binding of serum 2 to looped/cyclic peptides of protein M of SARS-CoV Urbani [1]: 0.7
Binding of serum 6 to linear peptides of protein M of SARS-CoV Urbani [1]: 0.5
Binding of serum 6 to looped/cyclic peptides of protein M of SARS-CoV Urbani [1]: 0.7
Binding of serum 37 to linear peptides of protein M of SARS-CoV Urbani [1]: 0.5
Binding of serum 37 to looped/cyclic peptides of protein M of SARS-CoV Urbani [1]: 0.9
Binding of serum 62 to linear peptides of protein M of SARS-CoV Urbani [1]: 0.4
Binding of serum 62 to looped/cyclic peptides of protein M of SARS-CoV Urbani [1]: 0.8
Binding of serum London to linear peptides of protein M of SARS-CoV Urbani [1]: 0.3
Binding of serum London to looped/cyclic peptides of protein M of SARS-CoV Urbani [1]: 0.3
Binding of serum SARS-green to linear peptides of protein M of SARS-CoV Urbani [1]: 0.5
Binding of serum SARS-green to looped/cyclic peptides of protein M of SARS-CoV Urbani [1]: 0.3
Binding of serum SARS-yellow to linear peptides of protein M of SARS-CoV Urbani [1]: 0.2
Binding of serum SARS-yellow to looped/cyclic peptides of protein M of SARS-CoV Urbani [1]: 0.8
Binding of Control Serum Blood-Bank to Looped peptides of the protein M of SARS-CoV Urbani [2]: 0.8
Binding of Control serum Blood-bank to linear peptides of the protein M of SARS-CoV Urbani [2]: 0.6
Binding of Control serum LUMC to linear peptides of the protein M of SARS-CoV Urbani [2]: 0.7
Binding of Control serum LUMC to looped peptides of the protein M of SARS-CoV Urbani [2]: 0.9
Rabbit serum linear peptides [3]: 0.0
Rabbit serum looped peptides [3]: 0.4

FVVFLLVTLAILTAL
Binding of serum 1a to linear peptides of protein E of SARS-CoV Urbani [1]: 0.6
Binding of serum 1a to looped/cyclic peptides of protein E of SARS-CoV Urbani [1]: 0.4
Binding of serum 1b to linear peptides of protein E of SARS-CoV Urbani [1]: 0.4
Binding of serum 1b to looped/cyclic peptides of protein E of SARS-CoV Urbani [1]: 0.4
Binding of serum 2 to linear peptides of protein E of SARS-CoV Urbani [1]: 0.5
Binding of serum 2 to looped/cyclic peptides of protein E of SARS-CoV Urbani [1]: 0.4
Binding of serum 6 to linear peptides of protein E of SARS-CoV Urbani [1]: 0.3
Binding of serum 6 to looped/cyclic peptides of protein E of SARS-CoV Urbani [1]: 0.6
Binding of serum 37 to linear peptides of protein E of SARS-CoV Urbani [1]: 0.4
Binding of serum 37 to looped/cyclic peptides of protein E of SARS-CoV Urbani [1]: 0.5
Binding of serum 62 to linear peptides of protein E of SARS-CoV Urbani [1]: 0.3
Binding of serum 62 to looped/cyclic peptides of protein E of SARS-CoV Urbani [1]: 0.6
Binding of serum London to linear peptides of protein E of SARS-CoV Urbani [1]: 0.5
Binding of serum London to looped/cyclic peptides of protein E of SARS-CoV Urbani [1]: 0.4
Binding of serum SARS-green to linear peptides of protein E of SARS-CoV Urbani [1]: 0.5
Binding of serum SARS-green to looped/cyclic peptides of protein E of SARS-CoV Urbani [1]: 0.4
Binding of serum SARS-yellow to linear peptides of protein E of SARS-CoV Urbani [1]: 0.2
Binding of serum SARS-yellow to looped/cyclic peptides of protein E of SARS-CoV Urbani [1]: 0.6
Binding of Control Serum Blood-Bank to Looped peptides [2]: 0.7
Binding of Control serum Blood-bank to linear peptides [2]: 0.5
Binding of Control serum LUMC to linear peptides [2]: 0.5
Binding of Control serum LUMC to looped peptides [2]: 0.6
Binding of a rabbit serum to linear peptides [3]: 0.2
Binding of a rabbit serum to looped peptides [3]: 0.2
